# Test results from ChEMBL document CHEMBL1144307, “Design of selective phenylglycine amide tissue factor/factor VIIa inhibitors” (Bioorg Med Chem Lett, 2005).
# Legend:
# Serine protease 1 = Serine protease 1 (Homo sapiens, UniProt P07477); experiment: The value of binding constant measured against human trypsin
# Coagulation factor X = Coagulation factor X (Homo sapiens, UniProt P00742); experiment: The value of binding constant measured against coagulation factor X (factor Xa)
# Prothrombin = Prothrombin (Homo sapiens, UniProt P00734); experiment: The value of binding constant measured against human Thrombin
# Coagulation factor VII = target: T1, Coagulation factor VII (Homo sapiens, UniProt P08709); experiment: The value of binding constant measured against coagulation factor VII
# T1 sequence (P08709 whole entry): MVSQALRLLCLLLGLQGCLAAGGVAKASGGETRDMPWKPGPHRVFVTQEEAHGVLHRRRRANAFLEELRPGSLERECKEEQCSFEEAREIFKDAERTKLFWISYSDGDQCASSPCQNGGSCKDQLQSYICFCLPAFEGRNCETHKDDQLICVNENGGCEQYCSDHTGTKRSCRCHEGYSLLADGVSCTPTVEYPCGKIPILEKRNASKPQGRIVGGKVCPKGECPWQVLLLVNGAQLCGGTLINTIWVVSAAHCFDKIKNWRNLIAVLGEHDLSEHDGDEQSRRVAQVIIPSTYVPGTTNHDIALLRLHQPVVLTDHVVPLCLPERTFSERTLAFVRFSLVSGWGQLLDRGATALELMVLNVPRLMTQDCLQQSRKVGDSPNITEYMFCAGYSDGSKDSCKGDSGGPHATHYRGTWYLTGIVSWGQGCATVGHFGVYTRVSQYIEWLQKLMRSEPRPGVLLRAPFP
# Chain of Coagulation factor X (P00742 41-179 limits assumed): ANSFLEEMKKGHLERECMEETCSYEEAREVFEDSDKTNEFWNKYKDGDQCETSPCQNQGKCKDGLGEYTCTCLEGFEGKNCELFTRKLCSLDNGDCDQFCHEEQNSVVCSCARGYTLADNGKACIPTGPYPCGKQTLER
# Chain of Coagulation factor X (P00742 235-488 limits assumed): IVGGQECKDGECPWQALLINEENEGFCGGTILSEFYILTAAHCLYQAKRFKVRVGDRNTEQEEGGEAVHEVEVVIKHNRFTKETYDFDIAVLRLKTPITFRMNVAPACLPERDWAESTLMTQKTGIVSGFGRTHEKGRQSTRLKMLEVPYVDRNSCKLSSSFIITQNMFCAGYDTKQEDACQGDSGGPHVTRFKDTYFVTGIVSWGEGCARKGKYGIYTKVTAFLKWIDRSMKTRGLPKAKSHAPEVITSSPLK
# Chain of Serine protease 1 (P07477 whole entry): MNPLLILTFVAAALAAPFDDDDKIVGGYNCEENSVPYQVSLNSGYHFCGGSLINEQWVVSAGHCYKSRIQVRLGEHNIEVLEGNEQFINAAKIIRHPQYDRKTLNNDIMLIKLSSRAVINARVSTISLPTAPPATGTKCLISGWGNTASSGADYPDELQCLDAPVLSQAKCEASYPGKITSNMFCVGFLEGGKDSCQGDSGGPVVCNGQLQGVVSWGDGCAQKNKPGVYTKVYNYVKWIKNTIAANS
SMILES,Ki (Serine protease 1) [nM],Ki (Coagulation factor X) [nM],Ki (Prothrombin) [nM],Ki (Coagulation factor VII) [nM]
COc1cc([C@@H](Nc2ccc(C(=N)N)cc2)C(=O)N[C@H](C(=O)O)c2ccccc2)ccc1OCc1ccccc1,40,8000,35,
COc1cc(C(Nc2ccc(C(=N)N)cc2)C(=O)NCc2ccccc2)c(S(=O)(=O)c2ccccc2)cc1OCc1ccccc1 (stereo unspecified),420,> 74000,1700,160
COc1cc(C(Nc2ccc(C(=N)N)cc2)C(=O)NCc2ccccc2)ccc1OCc1ccccc1 (stereo unspecified),210,5300,43,220
COc1cc([C@@H](Nc2ccc(C(=N)N)cc2)C(=O)N[C@H](C(=O)O)c2ccccc2)c(C(=O)Cc2ccccc2)cc1OCc1ccccc1,80,19000,6400,7
COc1cc([C@@H](Nc2ccc(C(=N)N)cc2)C(=O)N[C@H](C(=O)O)c2ccccc2)c(S(=O)(=O)c2ccccc2)cc1OCc1ccccc1,50,12400,540,
COc1ccc(C(Nc2ccc(C(=N)N)cc2)C(=O)NCc2ccccc2)cc1OC (stereo unspecified),1700,30000,460,350

# Continued, values first:
Ki (Serine protease 1) [nM],Ki (Coagulation factor X) [nM],Ki (Prothrombin) [nM],Ki (Coagulation factor VII) [nM],SMILES
580,1200,270,1000,COc1cc(CNc2ccc(C(=N)N)cc2)ccc1OCc1ccccc1
1100,4500,48,130,CCOc1cc(C(Nc2ccc(C(=N)N)cc2)C(=O)NCc2ccccc2)ccc1OCc1ccccc1 (stereo unspecified)
2000,39000,4500,,CCOc1ccc(CNc2ccc(C(=N)N)cc2)cc1OCC
400,26000,1400,380,COc1cc(CNc2ccc(C(=N)N)cc2)c(NS(C)(=O)=O)cc1OCc1ccccc1
2000,19000,570,40,CCOc1ccc(C(Nc2ccc(C(=N)N)cc2)C(=O)NCc2ccccc2)cc1OCC (stereo unspecified)
